Each structure is given as a SMILES string.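 Method: 48-hour compound exposure of cells in 96-well plates, five concentrations, linear interpolation of endpoints. GI50: concentration for 50% inhibition of growth. TGI: concentration producing complete growth inhibition.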 Bounds are passed on as bounds.

Test systems include HCT-15 colon; HL-60(TB) leukemia; EKVX NSCLC; SF-268 CNS; SNB-19 CNS; COLO 205 colon; CAKI-1 renal; MALME-3M melanoma; A498 renal.
What all share (test): NCI anticancer screen, dose series, 48 h

As for `O=c1c2ccccc2sc2c(NCCCNCCO)nc3ccccc3c12`, the GI50 with HCT-15 colon is 1.57 µM; with HL-60(TB) leukemia, 1.92 µM; in the assay on EKVX NSCLC, 1.67 µM; with SF-268 CNS, 1.69 µM; in the assay with SNB-19 CNS, 2.02 µM; in the assay on COLO 205 colon, 1.47 µM. The results for the GI50 in the assay on CAKI-1 renal and in the assay on MALME-3M melanoma were 1.6 µM and 1.58 µM, respectively. In addition, the TGI with HCT-15 colon turned out to be 3.52 µM; in the assay with HL-60(TB) leukemia, 3.92 µM; in the assay with EKVX NSCLC, 4.58 µM; with SF-268 CNS it was 4.24 µM; with SNB-19 CNS, 5.13 µM; in the assay on COLO 205 colon, 3.23 µM. The TGI came out at 3.2 µM in the assay with CAKI-1 renal and 3.3 µM with MALME-3M melanoma.

As for `COc1ccc(Cc2c3cc(O)c(=O)cc-3ccn2C)cc1`, the TGI in the assay on A498 renal is more than 100 µM; with HL-60(TB) leukemia, more than 100 µM; with EKVX NSCLC, more than 100 µM; with SF-268 CNS, 98.2 µM; in the assay with SNB-19 CNS it was more than 100 µM; in the assay with COLO 205 colon, more than 100 µM. Also, the results for the TGI in the assay on CAKI-1 renal and in the assay on MALME-3M melanoma were more than 100 µM and more than 88.1 µM, respectively.

With `CC(C)(C)C1=CC(=C(P(=O)(O)O)P(=O)(O)O)C=C(C(C)(C)C)C1=O`, the TGI with HCT-15 colon, with A498 renal, in the assay on HL-60(TB) leukemia, in the assay with EKVX NSCLC, in the assay with SF-268 CNS and with SNB-19 CNS was more than 50 µM throughout. Besides, the TGI in the assay on CAKI-1 renal and in the assay with MALME-3M melanoma was more than 50 µM in each case.

With `CC(C)N(C(=O)C12C3C4C5(C#N)C3C1(C#N)C5C42C#N)C(C)C` (stereo not drawn), the TGI in the assay with A498 renal, with HL-60(TB) leukemia, in the assay on EKVX NSCLC, in the assay on SF-268 CNS, in the assay with SNB-19 CNS and with COLO 205 colon was more than 100 µM in each case. Besides, the TGI in the assay with MALME-3M melanoma is more than 100 µM.

As for `O=C(/C=C\c1ccccc1O)c1ccc(O)cc1O`, the TGI in the assay on HCT-15 colon, with A498 renal, with HL-60(TB) leukemia, in the assay on EKVX NSCLC, in the assay on SF-268 CNS and in the assay on SNB-19 CNS was more than 100 µM in each case. Further, the TGI in the assay on COLO 205 colon is 72.9 µM; in the assay on CAKI-1 renal it was more than 100 µM; in the assay with MALME-3M melanoma, more than 100 µM.

Regarding `O=C1C=C(Nc2ccc(Cl)cc2Cl)c2ccccc2C1=O`, the TGI with HCT-15 colon was more than 100 µM; with A498 renal, more than 100 µM; in the assay on HL-60(TB) leukemia it was 92.5 µM; in the assay with EKVX NSCLC it was more than 100 µM; with SF-268 CNS, more than 100 µM; in the assay with SNB-19 CNS, more than 100 µM. The TGI was more than 100 µM in the assay with COLO 205 colon, more than 100 µM in the assay with CAKI-1 renal and 71 µM in the assay with MALME-3M melanoma.

With `Cc1c(C)c2ccc3oc4ccccc4c3c2oc1=O`, the TGI with HCT-15 colon, with A498 renal, in the assay with HL-60(TB) leukemia, with EKVX NSCLC, in the assay on SF-268 CNS and in the assay on SNB-19 CNS was more than 100 µM in each case. The TGI in the assay on COLO 205 colon, with CAKI-1 renal and in the assay on MALME-3M melanoma was more than 100 µM in each case.

In the case of `COC(=O)c1cc2c(=O)n(C)c3ccccc3n2c1C(=O)OC`, the TGI in the assay on HCT-15 colon was more than 100 µM; with A498 renal, more than 100 µM; in the assay on EKVX NSCLC it was 78.2 µM; in the assay with SF-268 CNS, more than 100 µM; with SNB-19 CNS, more than 100 µM; in the assay on COLO 205 colon it was more than 100 µM. Further, the TGI in the assay on CAKI-1 renal and in the assay with MALME-3M melanoma was more than 100 µM each time.

For the molecule `OC(CNc1ccnc2cc(Cl)ccc12)CNc1ccnc2cc(Cl)ccc12`, the GI50 was 17.2 µM in the assay on HCT-15 colon; 11 µM in the assay on A498 renal; 1.82 µM with HL-60(TB) leukemia; 2.22 µM in the assay on EKVX NSCLC; 31.1 µM in the assay on CAKI-1 renal. The TGI is 44.6 µM in the assay on HCT-15 colon; 25.3 µM in the assay with A498 renal; 3.79 µM in the assay on HL-60(TB) leukemia; 6.04 µM in the assay on EKVX NSCLC; more than 100 µM in the assay with CAKI-1 renal.

`CCOC(OC(C)=O)[C@@H]1C=C[C@H](C)N(c2ccc([N+](=O)[O-])cc2)O1` (stereo partly drawn): the TGI in the assay on HCT-15 colon was 6.77 µM; with A498 renal, more than 59.4 µM; in the assay on HL-60(TB) leukemia it was 4.79 µM; in the assay with EKVX NSCLC, 39 µM; with SF-268 CNS, 15.6 µM; in the assay with SNB-19 CNS, 37.4 µM. Besides, the TGI in the assay on COLO 205 colon stood at 27.7 µM; with CAKI-1 renal, 24.3 µM; with MALME-3M melanoma, 20.1 µM.

With `CSc1ccc2c(cc1=O)[C@@H](NC(=O)c1cccc([N+](=O)[O-])c1)CCc1cc(O)c(O)c(O)c1-2`, the TGI in the assay with HCT-15 colon was more than 100 µM; in the assay with A498 renal, 90.7 µM; in the assay with HL-60(TB) leukemia it was more than 100 µM; in the assay with EKVX NSCLC, more than 100 µM; in the assay on SF-268 CNS, more than 100 µM; with SNB-19 CNS it was more than 100 µM. The TGI in the assay on COLO 205 colon, in the assay with CAKI-1 renal and in the assay on MALME-3M melanoma was more than 100 µM throughout.

For the molecule `N#C/C(=C\c1cc(O)cc(O)c1)C(N)=O`, the TGI with HCT-15 colon, with A498 renal, in the assay with EKVX NSCLC, with SF-268 CNS, with SNB-19 CNS and in the assay on COLO 205 colon was more than 100 µM in each case. For the same molecule, the TGI in the assay on CAKI-1 renal and with MALME-3M melanoma was more than 100 µM each time.

As to `C=CCC1(CN(C)C)CC/C(=C\c2ccc(OC)cc2)C1=O` (stereo not drawn), the TGI with HCT-15 colon was more than 100 µM; with A498 renal, more than 100 µM; with HL-60(TB) leukemia it was 45.6 µM; in the assay on EKVX NSCLC, more than 100 µM; in the assay on SF-268 CNS it was more than 100 µM; with SNB-19 CNS, more than 100 µM. For the same molecule, the TGI in the assay with COLO 205 colon and in the assay with MALME-3M melanoma was more than 100 µM in each case.

For the molecule `CC1(C)OC2C(CCP(=O)(O)O)OC(c3nc(C(N)=O)cs3)C2O1` (stereo not drawn), the TGI in the assay with HCT-15 colon, in the assay with A498 renal, in the assay on EKVX NSCLC, in the assay on SF-268 CNS, in the assay on SNB-19 CNS and in the assay on COLO 205 colon was more than 100 µM each time. In addition, the TGI in the assay on CAKI-1 renal and with MALME-3M melanoma was more than 100 µM throughout.

Regarding `NNC(=O)C(=O)N/N=C(\CCCC(=O)Nc1ccc(Cl)cc1)CC(=O)c1ccc(F)cc1`, the TGI was 88.6 µM in the assay with A498 renal; more than 100 µM in the assay with HL-60(TB) leukemia; more than 100 µM with EKVX NSCLC; more than 100 µM in the assay with SF-268 CNS; more than 100 µM in the assay with SNB-19 CNS; more than 100 µM in the assay with COLO 205 colon. In the assay on MALME-3M melanoma, this molecule displayed a TGI of more than 100 µM.

Source of the values: PubChem BioAssay (NCI).
